The target in one experiment is EZH2 (rPRC2) (Homo sapiens, UniProt Q15910). Description: EZH2 assay: rPRC2, biotinylated oligonucleosomes, 3H SAM methyl transfer (FlashPlate scintillation). Format: biochemical. The settings on record: biotinylated oligonucleosome substrate. The protocol:
Assays were carried out by mixing rPRC2 together with biotinylated oligonucleosome substrates in the presence of the radio-labeled enzyme co-factor, S-adenosyl-1-methionine (^3H SAM) (Perkin Elmer) and monitoring the enzymatically mediated transfer of tritiated methyl groups from ^3H SAM to histone lysine residues. The amount of resulting tritiated methyl histone product was measured by first capturing the biotinylated oligonucleosomes in streptavidin (SAV) coated FlashPlates (Perkin Elmer), followed by a wash step to remove un-reacted ^3H SAM, and then counting on a TopCount NXT 384 well plate scintillation counter (Perkin Elmer). The final assay conditions for EZH2 were as follows: 50 mM Tris Buffer pH 8.5, 1 mM DTT, 69 μM Brij-35 detergent, 5.0 mM MgCl2, 0.1 mg/mL BSA, 0.2 μM ^3H SAM, 0.2 μM biotinylated oligonucleosomes, 3.6 μM H3K27 mc3 peptide and 2 nM EZH2.
A 12.5 μL volume of the HMT enzyme, H3K27me3 peptide and oligonucleosome substrate in assay buffer was added to each well of the assay plate using a Multidrop Combi (ThermoFisher). Compounds were pre-incubated with the enzyme for 20 min, followed by initiation of the methyltransferase reaction by addition of 12.5 μL of ^3H SAM in assay buffer (final volume=25 μL). The final concentrations of compounds ranged from a top default concentration of 80 μM down to 0.16 μM in ten 2-fold dilution steps. Reactions were carried out for 60 minutes and quenched with 20 μL per well of 1.96 mM SAH, 50 mM Tris pH 8.5, 200 mM EDTA. Stopped reactions were transferred to SAV coated Flashplates (Perkin Elmer), incubated for 120 min, washed with a plate washer, and then read on the TopCount NXT (1.0 min/well) to measure the amount of methyl histone product formed during the reaction.

In a further experiment the target is Y641N EZH2 (Homo sapiens, UniProt Q15910, Y641N). Description: Y641N EZH2 assay: as EZH2 assay, with reconstituted H3K27Me2 oligonucleosomes as substrate. Format: biochemical.
Where [1] appears, read: EZH2 IC50, wild-type EZH2 (rPRC2).
Where [2] appears, read: Y641N EZH2 IC50, Y641N mutant EZH2, H3K27Me2 oligonucleosome substrate.
Where [3] appears, read: wild-type EZH2 (rPRC2), read-out: EZH2 IC50.

SMILES strings stand for the structures. Read-outs that look alike come from different tables or passages of the source.

Y641N EZH2, sequence (Q15910 whole entry Y641N): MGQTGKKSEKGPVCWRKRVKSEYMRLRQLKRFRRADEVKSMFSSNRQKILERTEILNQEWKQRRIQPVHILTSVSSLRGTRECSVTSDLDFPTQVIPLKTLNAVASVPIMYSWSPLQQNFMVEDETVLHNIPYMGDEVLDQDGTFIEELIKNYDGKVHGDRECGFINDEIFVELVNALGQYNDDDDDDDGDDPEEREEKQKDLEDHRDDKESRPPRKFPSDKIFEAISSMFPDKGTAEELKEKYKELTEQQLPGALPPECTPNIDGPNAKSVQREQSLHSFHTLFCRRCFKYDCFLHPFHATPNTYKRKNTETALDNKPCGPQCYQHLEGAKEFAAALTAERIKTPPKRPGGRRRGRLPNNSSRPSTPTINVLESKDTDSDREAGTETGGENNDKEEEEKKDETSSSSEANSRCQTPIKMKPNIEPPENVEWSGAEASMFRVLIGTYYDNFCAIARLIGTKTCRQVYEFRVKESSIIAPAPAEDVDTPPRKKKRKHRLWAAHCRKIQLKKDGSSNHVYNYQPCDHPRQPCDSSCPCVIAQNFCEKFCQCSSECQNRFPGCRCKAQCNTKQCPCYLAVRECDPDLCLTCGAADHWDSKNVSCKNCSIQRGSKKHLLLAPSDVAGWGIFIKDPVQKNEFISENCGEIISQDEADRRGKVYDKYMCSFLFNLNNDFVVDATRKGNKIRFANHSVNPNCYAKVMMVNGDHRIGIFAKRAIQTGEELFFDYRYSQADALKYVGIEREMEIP
Y641N EZH2, sequence (O75530 whole entry partner): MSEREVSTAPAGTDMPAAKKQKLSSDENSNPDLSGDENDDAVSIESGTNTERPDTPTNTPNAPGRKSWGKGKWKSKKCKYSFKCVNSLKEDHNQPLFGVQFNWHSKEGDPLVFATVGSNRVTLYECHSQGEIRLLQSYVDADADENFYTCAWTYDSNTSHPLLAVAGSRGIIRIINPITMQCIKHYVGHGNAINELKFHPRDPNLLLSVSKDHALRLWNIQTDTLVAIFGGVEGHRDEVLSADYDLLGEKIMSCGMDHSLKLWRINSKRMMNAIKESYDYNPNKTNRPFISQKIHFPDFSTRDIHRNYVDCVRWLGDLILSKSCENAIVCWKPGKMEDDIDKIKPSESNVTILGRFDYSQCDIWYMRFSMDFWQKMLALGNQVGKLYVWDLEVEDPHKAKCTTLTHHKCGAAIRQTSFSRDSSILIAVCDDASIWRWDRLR
Y641N EZH2, sequence (Q15022 whole entry partner): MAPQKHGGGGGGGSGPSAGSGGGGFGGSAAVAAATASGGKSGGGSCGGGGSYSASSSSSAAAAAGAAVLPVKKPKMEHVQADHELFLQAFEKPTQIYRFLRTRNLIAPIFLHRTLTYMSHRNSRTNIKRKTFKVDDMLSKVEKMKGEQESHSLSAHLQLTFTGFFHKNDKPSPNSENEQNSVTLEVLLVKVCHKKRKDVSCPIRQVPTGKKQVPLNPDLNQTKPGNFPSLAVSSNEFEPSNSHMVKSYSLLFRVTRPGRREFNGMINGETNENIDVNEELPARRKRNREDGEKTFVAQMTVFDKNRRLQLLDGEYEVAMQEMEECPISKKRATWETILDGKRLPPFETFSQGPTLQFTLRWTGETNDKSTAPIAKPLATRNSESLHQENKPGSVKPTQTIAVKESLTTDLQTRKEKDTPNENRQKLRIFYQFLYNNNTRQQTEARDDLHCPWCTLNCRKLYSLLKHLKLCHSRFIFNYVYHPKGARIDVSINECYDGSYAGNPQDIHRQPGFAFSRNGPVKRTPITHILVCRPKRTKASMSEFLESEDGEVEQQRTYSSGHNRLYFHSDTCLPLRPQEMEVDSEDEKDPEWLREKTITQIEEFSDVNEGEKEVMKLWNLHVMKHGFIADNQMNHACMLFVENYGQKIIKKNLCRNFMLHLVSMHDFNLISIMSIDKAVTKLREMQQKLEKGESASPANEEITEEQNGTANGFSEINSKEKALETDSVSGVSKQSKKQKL
EZH2 (rPRC2), sequence (Q15910 whole entry): as the sequence (Q15910 whole entry Y641N) above, with N641Y counted along it
EZH2 (rPRC2), sequence (O75530 whole entry partner): as the sequence (O75530 whole entry partner) above
EZH2 (rPRC2), sequence (Q15022 whole entry partner): as the sequence (Q15022 whole entry partner) above

Usually IC50 stands for the concentration needed to halve the response being measured. For the molecule `Cc1cc(C)c(CNC(=O)c2c(C)n(C(C)c3ccccc3)c3cccnc23)c(O)n1` (racemic) [Compound 126, N-((2-hydroxy-4,6-dimethylpyridin-3-yl)methyl)-2-methyl-1-(1-phenylethyl)-1H-pyrrolo[3,2-b]pyridine-3-carboxamide], the IC50 against EZH2 (rPRC2) (setting [1]) is 0.1 to 1 µM; at Y641N EZH2 (setting [2]), 1 to 10 µM.
Turning to `Cc1cc(C)c(CNC(=O)c2c(C3CC3)n(C(C)c3ccccc3)c3ccccc23)c(O)n1` (racemic) [Compound 131, (±)-2-cyclopropyl-N-((2-hydroxy-4,6-dimethylpyridin-3-yl)methyl)-1-(1-phenylethyl)-1H-indole-3-carboxamide], the “EZH2 IC50” value on EZH2 (rPRC2) (wild-type EZH2 (rPRC2)) was “*(1.0 μM)”. Also, on Y641N EZH2 (Y641N mutant EZH2, H3K27Me2 oligonucleosome substrate), the “Y641N EZH2 IC50” value was “*(1.0 μM)”.
On to `Cc1cc(C)c(CNC(=O)c2c(C)n(C(C)c3ccccc3)c3c(=O)n(C)ccc23)c(=O)[nH]1` (racemic) [Compound 139, N-((4,6-dimethyl-2-oxo-1,2-dihydropyridin-3-yl)methyl)-2,6-dimethyl-7-oxo-1-(1-phenylethyl)-6,7-dihydro-1H-pyrrolo[2,3-c]pyridine-3-carboxamide], for which the IC50 at EZH2 (rPRC2) (setting [3]) is 0.1 to 1 µM; at Y641N EZH2 (Y641N mutant EZH2, H3K27Me2 oligonucleosome substrate, read-out: Y641N EZH2 IC50), 1 to 10 µM.
For `Cc1cc(C)c(CNC(=O)c2c(C)n(C(C)c3ccccc3C)c3ccccc23)c(=O)[nH]1` (racemic) [Compound 174, (±)-N-((4,6-dimethyl-2-oxo-1,2-dihydropyridin-3-yl)methyl)-2-methyl-1-(1-(o-tolyl)ethyl)-1H-indole-3-carboxamide], the IC50 on EZH2 (rPRC2) (setting [1]) lay within 0.1 to 1 µM; against Y641N EZH2 (setting [2]), 1 to 10 µM.
For `Cc1cc(C)c(CNC(=O)c2c(C)n(C(C)c3ccccc3C#N)c3ccccc23)c(=O)[nH]1` (racemic) [Compound 178, (±)-1-(1-(2-cyanophenyl)ethyl)-N-((4,6-dimethyl-2-oxo-1,2-dihydropyridin-3-yl)methyl)-2-methyl-1H-indole-3-carboxamide], in that order: 0.1 to 1 µM and 1 to 10 µM.
Consider `Cc1cc(C)c(CNC(=O)c2cnn(C(C)c3ccccc3)c2C)c(O)n1` (single isomer, unassigned) [Compound 108, (R or S)—N-((2-hydroxy-4,6-dimethylpyridin-3-yl)methyl)-5-methyl-1-(1-phenylethyl)-1H-pyrazole-4-carboxamide], for which the IC50 on EZH2 (rPRC2) (setting [3]) was more than 10 µM.
Regarding `COc1cc(C)[nH]c(=O)c1CNC(=O)c1c(C)n(C(C)c2ccccc2)c2ccccc12` (single isomer, unassigned) [Compound 115, (S or R)N-((4-methoxy-6-methyl-2-oxo-1,2-dihydropyridin-3-yl)methyl)-2-methyl-1-(1-phenylethyl)-1H-indole-3-carboxamide], the IC50 at EZH2 (rPRC2) (read-out: EZH2 IC50, wild-type EZH2 (rPRC2)) was less than 0.1 µM.
As to `Cc1cc(C)c(CNC(=O)c2c(C)n(C(C)c3ccccc3)c3ncccc23)c(=O)[nH]1` (single isomer, unassigned) [Compound 117, N-((4,6-dimethyl-2-oxo-1,2-dihydropyridin-3-yl)methyl)-2-methyl-1-(1-phenylethyl)-1H-pyrrolo[2,3-b]pyridine-3-carboxamide], the IC50 on Y641N EZH2 (read-out: Y641N EZH2 IC50, Y641N mutant EZH2, H3K27Me2 oligonucleosome substrate) lay within 0.1 to 1 µM.
For `CCC(C)n1c(C)c(C(=O)NCc2c(C)cc(C)[nH]c2=O)c2cccnc21` (single isomer, unassigned) [Compound 196, (R or S)-1-(sec-butyl)-N-((4,6-dimethyl-2-oxo-1,2-dihydropyridin-3-yl)methyl)-2-methyl-1H-pyrrolo[2,3-b]pyridine-3-carboxamide], the IC50 against Y641N EZH2 (setting [2]) was 0.1 to 1 µM.
Turning to `Cc1cc(C)c(CNC(=O)c2c(-c3ccccc3)n(C(C)c3ccccc3)c3ccccc23)c(O)n1` (single isomer, unassigned) [Compound 446, (R or S)-N-((2-hydroxy-4,6-dimethylpyridin-3-yl)methyl)-2-phenyl-1-(1-phenylethyl)-1H-indole-3-carboxamide], the “EZH2 IC50” value on EZH2 (rPRC2) (wild-type EZH2 (rPRC2)) is “*(10 uM)”.

(Values after patent publication US9371331B2, “Modulators of methyl modifying enzymes, compositions and uses thereof” (Constellation Pharmaceuticals, Inc., priority 2012, dated 2016).)
